Laboratory results: US10745434B2, “Uridine phosphoramide prodrug, preparation method therefor, and medicinal uses thereof” (priority 2016, dated 2020)
Read-outs that look alike come from different tables or passages of the source. Each block holds one compound with its values, some of them ahead of it.

Assays:
HCV GT1b replicons = assay: Anti-HCV replicon activity, HCV GT1b stable transfection replicon cell line (luciferase); type: cell-based, hepatitis C virus (HCV) genotype (GT) 1b
Description: (§1) A hepatitis C virus (HCV) genotype (GT) 1b stable transfection replicon cell line system was used to determine the inhibitory activity of the compounds to the HCV GT1b replicons. In this experiment, the compound 06a (GS-7977) was used as a control compound to monitor the experimental quality.
(§2) [drawing 4] 2. Compound dilution: 20 mM mother liquor was prepared by using 100% DMSO, and the compound DMSO mother liquor was diluted and added to a 96-well experiment plate. The final concentration of the DMSO was 0.5%. In in-vitro anti-HCV activity experiments and cytotoxicity experiments, all compounds had the initial concentration of 20 microns, and were diluted by 5 times of dilution. The final concentration of the DMSO of 6 concentrations were 0.5%. 3. Cell treatment: HCV-1b replicon sub-cells were added to the above 96-well cell plate (8,000 cells/well), and then placed into an incubator of 37 DEG C. and 5% CO2 for culturing for 3 days. 4. Cell activity detection: a cell growth fluorescent titration detection reagent was added to each well; after the cells were cultured for 1 hour in the incubator of 37 DEG C. and 5% CO2, a spectrophotometer detection system Envision was used to detect a Fluorescence signal value. The original data, i.e, relative fluorescence units (RFUs), was used for the calculation of the cell toxicity of the compounds. 5. Anti-HCV replicon activity detection: a luciferase light-emitting substrate bright-GLO was added to each well, and a chemiluminescence detection system Envision was used for detecting a Luminescence signal value in 5 minutes. The original data, i.e., relative light units (RLUs), was used for the calculation of the inhibitory activity of the compounds. 6. Data processing: the RFUs obtained in step 1.3 were processed into a cell activity percentage by using the following formula: […]
The RLUs obtained in step 1.4 were processed into a inhibition percentage by using the following formula:
[formula] *CPD: signal values of compound wells HPE (high percent effect): 100% effective action control well signal value, with only DMEM culture solution in the wells; The ZPE (zero percent effect): noneffective control well signal value, with 0.5% DMSO to replace the compound.
(§3) The cell activity percentage and the inhibition percentage were respectively imported into GraphPad Prism software for data processing to obtain curves corresponding to the compounds and their values of cytotoxicity (CC50) and inhibitory activity (ECD50) to the HCV replicons.

Human liver S9 stability = type: in vitro ADME; conditions: human liver S9, test concentration 1 μM
Description: 4. Human Liver S9 Stability Parameters (Test Concentration: 1 μM), See Table 5.

Human plasma stability = type: in vitro ADME; conditions: test concentration 2 μM
Description: 3. Human Plasma Stability (Test Concentration: 2 μM), See Table 4.

[1] = Simulated intestinal fluid stability; type: in vitro ADME; conditions: test concentration 10 μM
Description: 2. Simulated Intestinal Fluid Stability (Test Concentration: 10 μM), See Table 3: […]

[2] = tested on: HCV-1b replicon sub-cells; assay: Cytotoxicity in HCV-1b replicon cells (cell growth fluorescent titration); type: cell-based; conditions: HCV GT1b replicon cells, 3 days
Description: as §1, §2, §3

[3] = Simulated gastric liquid stability; type: in vitro ADME
[4] = Rat in-vivo metabolism and tissue distribution: metabolite TSL1100 in liver after intragastric administration; parameters: species or system SD rats; conditions: rat PO 50 mg/kg
Description: 18 SD rats (male, 6-9 weeks old, purchased from Vital River Animal center) were divided into 6 groups randomly, 3 rats in each group, fasted for 12 hours first before administration, freely fed with water during the fasting period. After the administration is carried out for 4 hours, the fasting was ended. 50 mg compound was precisely weighed on a balance, and 95% (0.5% of cd))/5% solutol aqueous solution was added and uniformly mixed, and subjected to ultrasonic treatment for later use. The drug delivery dose was 50 mg/kg; the drug delivery concentration was […]; and the drug delivery volume was […].
The sample collection scheme: taking blood and liver tissues after carrying out intragastric administration on rats for 1 h, 2 h, 3 h, 6 h, 12 h and 24 h.
The liver tissue sample treatment method: taking a rat tissue sample in a plastic EP tube, and adding 5 times (w:v) 1.75 mL MeOH and 5 μL 50% KOH aqueous solution together with 0.75 mL 268 mM EDTA solution to prepare a solution, uniformly mixing and taking 60 μL sample, adding a 240 μL internal standard solution for mixing, carrying out vortex oscillation for 2 minutes, and centrifuging for 10 minutes (13000 rpm and 4 DEG C.), taking 30 μL of supernate, adding 30 μL of water, carrying out vortex mixing, centrifuging at 4 DEG C., and then taking 5 μL supernate for […] analysis.
LC-MS/MS-O (API 4000) liquid mass spectrometer and chromatographic column are adopted: ACQUITY UPLC BEH C18 130 Å 1.7 μm 2.1×50 mm the composition com: and tomitamide was adopted as an internal standard compound, gradient elution analysis is carried out after the sample is fed into the sample, and the internal standard is recorded respectively, the retention time and the peak area of the to-be-tested compound and the metabolite TSL 1100, the software phoenix winnonlin 6.2. The method is analyzed by an srms quantitative detection method.

[5] = Cytotoxicity in HCV-1b replicon cells (cell growth fluorescent titration); type: cell-based; conditions: HCV genotype 1b stably transfected replicon cells, HCV GT1b replicon cells
Description: as §1, §2, §3

[6] = molecular target: T1, herg potassium ion channel (Homo sapiens, UniProt Q12809); assay: In vitro cardiotoxicity, hERG manual patch clamp in CHO cells; type: cell-based
T1 construct: host or cells: CHO cells stably expressing hERG
Description: The experiment adopted CHO cells which can stably express the herg potassium ion channel from AVivaBiosciences company, wherein the cells were incubated in a constant-humidity environment at the temperature of 37 DEG C. with 5% CO2.
The compounds were tested on a Multiclamp patch-clamp amplifier at room temperature; the output signals were digitized by using a DLigital 1440 A/D-D/A board; the PCLAMP 10 software was used for recording and controlling. The minimum sealing resistance was set to 500 MOhms and the minimum specific hERG current was set to 0.4 nA for quality control.
Clampfit (V10.2, Molecular Devices), Excel 2003 and GraphPad Prism 5.0 were used for data analysis.

[7] = HCV GT1b replicons, 3 days, maximum test concentration 20 μM, read-out: EC50 anti-HCV replicon activity
[8] = Hepatitis C virus, GT1B, 72 h, read-out: EC50 anti-HCV replicon activity, HCV GT1b replicons, 3 days, maximum test concentration 20 μM
[9] = read-out: EC50 anti-HCV replicon activity, HCV GT1b replicons, 3 days, maximum test concentration 20 μM

T1 sequence (Q12809 whole entry): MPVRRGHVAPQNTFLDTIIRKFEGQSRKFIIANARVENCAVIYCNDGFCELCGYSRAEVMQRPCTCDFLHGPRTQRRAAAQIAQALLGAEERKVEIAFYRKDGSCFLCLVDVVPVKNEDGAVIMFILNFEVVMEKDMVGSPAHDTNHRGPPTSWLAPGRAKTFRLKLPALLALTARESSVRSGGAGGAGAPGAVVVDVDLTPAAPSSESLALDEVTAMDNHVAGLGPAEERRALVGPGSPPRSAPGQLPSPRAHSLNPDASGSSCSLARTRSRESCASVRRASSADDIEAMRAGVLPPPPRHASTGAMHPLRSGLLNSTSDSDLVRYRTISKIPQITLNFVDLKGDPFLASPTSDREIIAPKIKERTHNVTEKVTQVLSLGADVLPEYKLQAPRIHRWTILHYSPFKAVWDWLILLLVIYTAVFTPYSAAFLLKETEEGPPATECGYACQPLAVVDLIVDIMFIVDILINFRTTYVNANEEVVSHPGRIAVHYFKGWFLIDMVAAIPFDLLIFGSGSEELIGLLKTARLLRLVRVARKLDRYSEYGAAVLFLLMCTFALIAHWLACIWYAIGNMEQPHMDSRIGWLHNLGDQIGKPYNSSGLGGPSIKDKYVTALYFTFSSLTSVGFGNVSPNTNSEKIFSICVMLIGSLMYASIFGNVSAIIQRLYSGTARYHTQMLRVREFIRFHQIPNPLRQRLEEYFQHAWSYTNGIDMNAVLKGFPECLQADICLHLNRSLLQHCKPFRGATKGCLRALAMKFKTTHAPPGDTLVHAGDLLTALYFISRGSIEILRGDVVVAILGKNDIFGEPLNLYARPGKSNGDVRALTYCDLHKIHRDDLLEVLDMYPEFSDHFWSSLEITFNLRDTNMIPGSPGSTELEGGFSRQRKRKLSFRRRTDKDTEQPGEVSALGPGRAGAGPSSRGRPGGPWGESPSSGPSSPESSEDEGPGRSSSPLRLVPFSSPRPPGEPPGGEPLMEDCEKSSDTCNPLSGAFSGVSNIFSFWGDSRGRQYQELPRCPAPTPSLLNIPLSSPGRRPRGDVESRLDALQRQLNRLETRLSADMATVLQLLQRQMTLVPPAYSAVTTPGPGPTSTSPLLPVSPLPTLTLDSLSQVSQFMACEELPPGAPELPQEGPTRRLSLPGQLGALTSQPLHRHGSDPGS

Compound: CC(C)OC(=O)C(C)NP(=O)(OCc1ccccc1)OCC1OC(n2ccc(=O)[nH]c2=O)C(C)(F)C1O (mixture of isomers) [Compound 01]
EC50 (HCV GT1b replicons; [7]): 6.12 µM
CLlint(s9) (Human liver S9 stability): 7.2 µL/min/mg
T1/2 (Human liver S9 stability): 1.61 h
Remaining % (NCF = 1 h) (Human liver S9 stability): 67.4%
Remaining % (T = 1 h) (Human liver S9 stability): 56.2%
CLlint(s9) (Human liver S9 stability; scaled per kg): 1.51 mL/h/kg
% 0 min residual percentage (Human plasma stability): 100%
% 10 min residual percentage (Human plasma stability): 98.9%
% 30 min residual percentage (Human plasma stability): 81.7%
% 60 min residual percentage (Human plasma stability): 80.9%
% 120 min residual percentage (Human plasma stability): 74.9%
% 0 h residual percentage [1]: 100%
% 1 h residual percentage [1]: 1.69%
% 2 h residual percentage [1]: 0.08%
% 6 h residual percentage [1]: 0.00%
% 24 h residual percentage [1]: 0.00%
CC50 [2]: > 20 µM
% 0 h residual percentage ([3]; test concentration 10 μM): 100%
% 1 h residual percentage ([3]; test concentration 10 μM): 96.81%
% 2 h residual percentage ([3]; test concentration 10 μM): 105.99%
% 6 h residual percentage ([3]; test concentration 10 μM): 100.76%
% 24 h residual percentage ([3]; test concentration 10 μM): 71.32%

Compound: CC(C)OC(=O)[C@H](C)NP(=O)(OCc1ccccc1)OC[C@H]1O[C@@H](n2ccc(=O)[nH]c2=O)[C@](C)(F)[C@@H]1O (single isomer, unassigned) [Compound 01a]
EC50 (HCV GT1b replicons; [7]): 0.301 µM
AUCExtra [4]: 4.74%
AUMCExtra [4]: 18.9%
Tlast [4]: 24.0 h
CC50 [2]: > 20 µM

Compound: CC(C)OC(=O)[C@H](C)NP(=O)(OCc1ccccc1)OC[C@H]1O[C@@H](n2ccc(=O)[nH]c2=O)[C@](C)(F)[C@@H]1O (single isomer, unassigned) [Compound 01b]
EC50 (HCV GT1b replicons; [7]): 9.15 µM
AUCExtra [4]: 6.61%
AUMCExtra [4]: 19.8%
Tlast [4]: 12.0 h
CC50 [2]: > 20 µM

Compound: Cc1ccccc1COP(=O)(N[C@@H](C)C(=O)OC(C)C)OC[C@H]1O[C@@H](n2ccc(=O)[nH]c2=O)[C@](C)(F)[C@@H]1O (single isomer, unassigned) [Unresolved enantiomer 02 of patent compounds in 2013]
EC50 (HCV GT1b replicons; [8]): 10 to 20 µM
EC50 (HCV GT1b replicons; [9]): 17.7 µM
CLlint(s9) (Human liver S9 stability): 72.6 µL/min/mg
half-life at 1 μM (Human liver S9 stability): 0.158 h
Remaining % (NCF = 1 h) (Human liver S9 stability): 64.7%
Remaining % (T = 1 h) (Human liver S9 stability): 1.1%
CLlint(s9) (Human liver S9 stability; scaled per kg): 15.34 mL/h/kg
% 0 min residual percentage (Human plasma stability): 100%
% 10 min residual percentage (Human plasma stability): 73.3%
% 30 min residual percentage (Human plasma stability): 69.5%
% 60 min residual percentage (Human plasma stability): 62.8%
% 120 min residual percentage (Human plasma stability): 58.8%
% 0 h residual percentage [1]: 100%
% 1 h residual percentage [1]: 0.63%
% 2 h residual percentage [1]: 0.08%
% 6 h residual percentage [1]: 0.00%
% 24 h residual percentage [1]: 0.00%
CC50 at 3 days [5]: > 20 µM
% 0 h residual percentage ([3]; test concentration 10 μM): 100%
% 1 h residual percentage ([3]; test concentration 10 μM): 82.70%
% 2 h residual percentage ([3]; test concentration 10 μM): 82.45%
% 6 h residual percentage ([3]; test concentration 10 μM): 74.80%
% 24 h residual percentage ([3]; test concentration 10 μM): 41.56%

CLlint(s9) (Human liver S9 stability): 194.2 µL/min/mg
half-life at 1 μM (Human liver S9 stability): 0.06 h
Remaining % (NCF = 1 h) (Human liver S9 stability): 103.3%
Remaining % (T = 1 h) (Human liver S9 stability): 0.0%
CLlint(s9) (Human liver S9 stability; scaled per kg): 41.01 mL/h/kg
Compound: CCOc1ccc2ccc(=O)oc2c1 [7-Ethoxycumarin]

Compound: O=c1ccc2ccc(O)cc2o1 [7-Hydroxycoumarin]
CLlint(s9) (Human liver S9 stability): 7.2 µL/min/mg
half-life at 1 μM (Human liver S9 stability): 1.61 h
Remaining % (NCF = 1 h) (Human liver S9 stability): 67.4%
Remaining % (T = 1 h) (Human liver S9 stability): 56.2%
CLlint(s9) (Human liver S9 stability; scaled per kg): 1.51 mL/h/kg

Compound: O=C(O)CCCc1ccc(N(CCCl)CCCl)cc1 [Chlorambucil]
% 0 h residual percentage [1]: 100%
% 1 h residual percentage [1]: 43.83%
% 2 h residual percentage [1]: 3.91%
% 6 h residual percentage [1]: 0.00%
% 24 h residual percentage [1]: 0.00%

Compound: COc1ccccc1COP(=O)(N[C@@H](C)C(=O)OC(C)C)OC[C@H]1O[C@@H](n2ccc(=O)[nH]c2=O)[C@](C)(F)[C@@H]1O (some centres unmarked) [Compound 03]
EC50 (HCV GT1b replicons; [8]): > 20 µM
CC50 at 3 days [5]: > 20 µM

Compound: Cc1ccc(COP(=O)(N[C@@H](C)C(=O)OC(C)C)OC[C@H]2O[C@@H](n3ccc(=O)[nH]c3=O)[C@](C)(F)[C@@H]2O)cc1 (some centres unmarked) [Compound 04]
EC50 (HCV GT1b replicons; [8]): 10 to 20 µM
EC50 (HCV GT1b replicons; [9]): 15.2 µM
CC50 at 3 days [5]: > 20 µM

Compound: COc1ccc(COP(=O)(N[C@@H](C)C(=O)OC(C)C)OC[C@H]2O[C@@H](n3ccc(=O)[nH]c3=O)[C@](C)(F)[C@@H]2O)cc1 (some centres unmarked) [Compound 05]
EC50 (HCV GT1b replicons; [8]): > 20 µM
CC50 at 3 days [5]: > 20 µM

% 0 h residual percentage ([3]; 20 μM): 100%
% 1 h residual percentage ([3]; 20 μM): 5.24%
% 2 h residual percentage ([3]; 20 μM): 2.76%
% 6 h residual percentage ([3]; 20 μM): 0.20%
% 24 h residual percentage ([3]; 20 μM): 0.00%
Compound: COc1ccc2[nH]c([S+]([O-])Cc3ncc(C)c(OC)c3C)nc2c1 (centres unmarked) [Omeprazole]

Compound: CC(C)OC(=O)[C@H](C)NP(=O)(OC[C@H]1O[C@@H](n2ccc(=O)[nH]c2=O)[C@](C)(F)[C@@H]1O)Oc1ccccc1 (some centres unmarked) [Patent compound 06 in 2008]
EC50 (HCV GT1b replicons; [8]): < 10 µM
EC50 (HCV GT1b replicons; [9]): 9.82 µM
CLlint(s9) (Human liver S9 stability): 6.0 µL/min/mg
half-life at 1 μM (Human liver S9 stability): 1.92 h
Remaining % (NCF = 1 h) (Human liver S9 stability): 64.0%
Remaining % (T = 1 h) (Human liver S9 stability): 58.6%
CLlint(s9) (Human liver S9 stability; scaled per kg): 1.27 mL/h/kg
% 0 min residual percentage (Human plasma stability): 100%
% 10 min residual percentage (Human plasma stability): 78.8%
% 30 min residual percentage (Human plasma stability): 70.9%
% 60 min residual percentage (Human plasma stability): 72.0%
% 120 min residual percentage (Human plasma stability): 65.3%
% 0 h residual percentage [1]: 100%
% 1 h residual percentage [1]: 0.00%
% 2 h residual percentage [1]: 0.00%
% 6 h residual percentage [1]: 0.00%
% 24 h residual percentage [1]: 0.00%
CC50 at 3 days [5]: > 20 µM
% 0 h residual percentage ([3]; test concentration 10 μM): 100%
% 1 h residual percentage ([3]; test concentration 10 μM): 95.19%
% 2 h residual percentage ([3]; test concentration 10 μM): 98.47%
% 6 h residual percentage ([3]; test concentration 10 μM): 84.08%
% 24 h residual percentage ([3]; test concentration 10 μM): 49.36%

Compound: CC(C)OC(=O)[C@H](C)N[P@](=O)(OC[C@H]1O[C@@H](n2ccc(=O)[nH]c2=O)[C@](C)(F)[C@@H]1O)Oc1ccccc1 [Patent compound 06a in 2010]
EC50 (HCV GT1b replicons; [8]): 0.719 µM
CC50 at 3 days [5]: > 3 µM
IC50 [6]: > 10 µM

% 0 min residual percentage (Human plasma stability): 100%
% 10 min residual percentage (Human plasma stability): 53.3%
% 30 min residual percentage (Human plasma stability): 14.3%
% 60 min residual percentage (Human plasma stability): 2.2%
% 120 min residual percentage (Human plasma stability): 0.0%
Compound: CC(C)[N+](C)(CCOC(=O)C1c2ccccc2Oc2ccccc21)C(C)C [Propantheline]
